Article PMC11110727, “Exploiting thiol-functionalized benzosiloxaboroles for achieving diverse substitution patterns – synthesis, characterization and biological evaluation of promising antibacterial agents” (RSC Medicinal Chemistry, 2024)
≈ marks a conversion by molar mass, not a printed value. Where two headings read alike, the source gives them in different places.

Legend:
C. albicans ATCC 90028 = experiment: Antifungal activity: MIC/MFC, disc-diffusion; format: cell-based, Candida albicans; conditions: for diameter of inhibition zone: C. albicans ATCC 90028, (-) = zone not observed, paper discs 9 mm; for MIC: Candida albicans, ATCC90028, read-out: MIC
Protocol: (§1) Direct antimicrobial activity was determined against the following standard strains: (1) Gram-positive cocci: methicillin-sensitive Staphylococcus aureus ATCC 6538P (MSSA), methicillin-resistant S. aureus subsp. aureus ATCC 43300 (MRSA), S. epidermidis ATCC 12228, Enterococcus faecium ATCC 6057, E. faecalis ATCC 29212, Bacillus subtilis ATCC 6633; (2) Gram-negative bacteria from Enterobacteriales order: Klebsiella pneumoniae ATCC 13883, Escherichia coli ATCC 25922, Enterobacter cloacae DSM 6234, Proteus mirabilis ATCC 12453, Serratia marcescens ATCC 13880; (3) Gram-negative non-fermentative rods: Acinetobacter baumannii ATCC 19606, Pseudomonas aeruginosa ATCC 27853, Stenotrophomonas maltophilia ATCC 12714, S. maltophilia ATCC 13637, Burkholderia cepacia ATCC 25416, Bordetella bronchiseptica ATCC 4617; (4) yeasts: Candida albicans ATCC 90028, C. krusei ATCC 6258, C. parapsilosis ATCC 22019, C. tropicalis (Castellani) Berkhout ATCC 750, C. tropicalis IBA 171, C. guilliermondii IBA 155, and Saccharomyces cerevisiae ATCC 9763. Moreover, 5 clinical strains of methicillin-resistant S. aureus were also included: NMI 664 K, NMI 1576 K, NMI 1712 K, NMI 1991 K, and NMI 2541 K. All strains were stored at −80 °C. Prior to testing, each bacterial strain was subcultured twice on tryptic soy agar TSA (bioMerieux) medium and yeast strains on Sabouraud dextrose agar (bioMerieux) for 24–48 h at 30 °C to ensure viability. The antimicrobial activity was evaluated as previously described[26] by the disc-diffusion method and the MIC determination assays according to the EUCAST (ref. [71] and [72]) and CLSI (ref. [53] and [73]) recommendations. Assessment of bactericidal (MBC) and fungicidal (MFC) activities was performed according to the CLSI recommendations.[54,74] The following reference agents were used: fluconazole (in the case of fungi), linezolid (for Gram-positive bacteria), and nitrofurantoin (for Gram-negative rods). The new benzosiloxaboroles were dissolved in DMSO (Sigma).

A. baumannii ATCC 19606 = experiment: Antibacterial activity: MIC/MBC, MIC with PAβN, disc-diffusion; format: cell-based, Acinetobacter baumannii; conditions: A. baumannii ATCC 19606; for MIC: Acinetobacter baumannii, ATCC19606, read-out: MIC
Protocol: as §1, with “The following reference agents were used: fluconazole (in the case of fungi), linezolid (for Gram-positive bacteria), and nitrofurantoin (for Gram-negative rods).” left out
(§2) Considering that the MDR efflux pumps often contribute to Gram-negative rod resistance, the MIC values of studied agents, with or without the pump inhibitor, PAβN (20 μg mL^−1) (Sigma), were determined.[75] The MIC was determined using Mueller–Hinton II broth medium (MHB) (Becton Dickinson) by the broth microdilution method, according to the CLSI guideliness.[53] To minimize the influence of PAβN on the destabilization of bacterial cell covers, the tests were conducted in the presence of 1 mM MgSO4 (Sigma).[76] At least a 4-fold reduction in the MIC value after the addition of PAβN was considered significant.[56,77]

S. aureus ATCC 6538P = experiment: Antibacterial activity: MIC/MBC determination and disc-diffusion; format: cell-based, Staphylococcus aureus; conditions: S. aureus ATCC 6538P; for diameter of inhibition zone: disc-diffusion, — = zone not observed; for MBC / MIC: Staphylococcus aureus, ATCC6538P; for MIC: read-out: MIC
Protocol: as §1

E. faecalis ATCC 29212 = experiment: as above; format: cell-based; conditions: Enterococcus faecalis, ATCC29212, E. faecalis ATCC 29212; for MIC: read-out: MIC
Procedure, shortened: (§3)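 EUCAST/CLSI MIC plus disc-diffusion; MBC, MFC by CLSI. Pre-culture: two passages, 30 °C, 24–48 h (TSA, Sabouraud). Controls fluconazole (fungi) and linezolid (Gram-positives); DMSO vehicle.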

[1] = test system: S. epidermidis ATCC 12228; experiment: as above; format: cell-based; conditions: Staphylococcus epidermidis, ATCC12228, S. epidermidis ATCC 12228; for MIC: read-out: MIC
Procedure, shortened: as §3

[2] = test system: C. guilliermondii IBA 155; experiment: Antifungal activity: MIC/MFC, disc-diffusion; format: cell-based; conditions: for MIC: Meyerozyma guilliermondii, IBA155, read-out: MIC
Protocol: as §1

[3] = test system: B. bronchiseptica ATCC 4617; experiment: Antibacterial activity: MIC/MBC, disc-diffusion; format: cell-based, Bordetella bronchiseptica; conditions: Bordetella bronchiseptica, ATCC4617; B. bronchiseptica ATCC 4617; read-out: MIC
Protocol: as §1, with “The following reference agents were used: fluconazole (in the case of fungi), linezolid (for Gram-positive bacteria), and nitrofurantoin (for Gram-negative rods).” left out
as §2

S. cerevisiae ATCC 9763 = experiment: Antifungal activity: MIC/MFC, disc-diffusion; format: cell-based, Saccharomyces cerevisiae; conditions: for diameter of inhibition zone: (-) = zone not observed, paper discs 9 mm; for MIC: read-out: MIC
Protocol: as §1

P. aeruginosa ATCC 27853 = experiment: Antibacterial activity: MIC/MBC, MIC with PAβN, disc-diffusion; format: cell-based; conditions: Pseudomonas aeruginosa, ATCC27853; P. aeruginosa ATCC 27853; read-out: MIC
Protocol: as §1, with “The following reference agents were used: fluconazole (in the case of fungi), linezolid (for Gram-positive bacteria), and nitrofurantoin (for Gram-negative rods).” left out
as §2

K. pneumoniae ATCC 13883 = experiment: as above; format: cell-based, Klebsiella pneumoniae; conditions: K. pneumoniae ATCC 13883; for MIC: Klebsiella pneumoniae, ATCC13883, read-out: MIC
Protocol: as §1, with “The following reference agents were used: fluconazole (in the case of fungi), linezolid (for Gram-positive bacteria), and nitrofurantoin (for Gram-negative rods).” left out
as §2

[4] = read-out: MBC (first MBC where Eagle effect)
[5] = Saccharomyces cerevisiae, ATCC9763
[6] = PAβN 20 μg mL^−1, MHB + 1 mM MgSO4
[7] = value after the slash, read-out: second MBC (Eagle effect)

Structure (SMILES)	MIC (C. albicans ATCC 90028)	MIC (A. baumannii ATCC 19606)	diameter of inhibition zone (S. aureus ATCC 6538P)	MBC (S. aureus ATCC 6538P; [4])	MIC (S. aureus ATCC 6538P)	MIC (E. faecalis ATCC 29212)	MBC [1]	MIC [1]	MIC [2]	MIC [3]	MIC (S. cerevisiae ATCC 9763; [5])	MIC (P. aeruginosa ATCC 27853)	MIC (K. pneumoniae ATCC 13883)	other results
C[Si]1(C)OB(O)c2cc(F)c(S)c(F)c21 [Compound 1e, 5,7-Difluoro-6-mercapto-1,1-dimethylbenzo[c][1,2,5]oxasilaborol-3(1H)-ol]	100 µg/mL (≈ 406 µM)	> 400 µg/mL	19 mm	25 µg/mL (≈ 102 µM)	12.5 µg/mL (≈ 50.8 µM)	12.5 µg/mL (≈ 50.8 µM)	50 µg/mL (≈ 203 µM)	1.56 µg/mL (≈ 6.34 µM)	> 400 µg/mL	> 400 µg/mL	200 µg/mL (≈ 813 µM)	> 400 µg/mL	> 400 µg/mL	diameter of inhibition zone (C. albicans ATCC 90028): 15 mm; MBC (E. faecalis ATCC 29212): 100 µg/mL (≈ 406 µM); diameter of inhibition zone (S. cerevisiae ATCC 9763; S. cerevisiae ATCC 9763): 17 mm
C[Si]1(C)OB(O)c2ccc(S)c(F)c21 [Compound 2e, 7-Fluoro-6-mercapto-1,1-dimethylbenzo[c][1,2,5]oxasilaborol-3(1H)-ol]	> 100 µg/mL	> 100 µg/mL	20 mm	25 µg/mL (≈ 110 µM)	12.5 µg/mL (≈ 54.8 µM)	12.5 µg/mL (≈ 54.8 µM)	25 µg/mL (≈ 110 µM)	6.25 µg/mL (≈ 27.4 µM)	> 100 µg/mL	> 100 µg/mL	> 100 µg/mL	> 100 µg/mL	> 100 µg/mL	
CC(=O)CCSc1c(F)cc2c(c1F)[Si](C)(C)OB2O [Compound 3, 4-((5,7-Difluoro-3-hydroxy-1,1-dimethyl-1,3-dihydrobenzo[c][1,2,5]oxasilaborol-6-yl)thio)butan-2-one]	> 400 µg/mL	> 400 µg/mL	23 mm	100 µg/mL (≈ 316 µM)	50 µg/mL (≈ 158 µM)	25 µg/mL (≈ 79.1 µM)	200 µg/mL (≈ 632 µM)	25 µg/mL (≈ 79.1 µM)	200 µg/mL (≈ 632 µM)	50 µg/mL (≈ 158 µM)	400 µg/mL (≈ 1260 µM)	> 400 µg/mL	> 400 µg/mL	MBC (E. faecalis ATCC 29212): 200 µg/mL (≈ 632 µM)
COC(=O)CCSc1ccc2c(c1F)[Si](C)(C)OB2O [Compound 4, Methyl 3-((7-fluoro-3-hydroxy-1,1-dimethyl-1,3-dihydrobenzo[c][1,2,5]oxasilaborol-6-yl)thio)propanoate]	> 400 µg/mL	> 400 µg/mL	27 mm	25 µg/mL (≈ 79.6 µM)	12.5 µg/mL (≈ 39.8 µM)	200 µg/mL (≈ 636 µM)		25 µg/mL (≈ 79.6 µM)	400 µg/mL (≈ 1270 µM)	> 400 µg/mL	12.5 µg/mL (≈ 39.8 µM)	> 400 µg/mL	> 400 µg/mL	diameter of inhibition zone (C. albicans ATCC 90028): 12 mm; -fold reduction of MIC in the presence of PAβN (A. baumannii ATCC 19606; [6]): 2 -fold; MBC (S. aureus ATCC 6538P; [7]): 400 µg/mL (≈ 1270 µM); diameter of inhibition zone ([2]; C. guilliermondii IBA 155, (-) = zone not observed, paper discs 9 mm): 12 mm; diameter of inhibition zone (S. cerevisiae ATCC 9763; S. cerevisiae ATCC 9763): 32 mm; MFC (S. cerevisiae ATCC 9763; Saccharomyces cerevisiae, ATCC9763, S. cerevisiae ATCC 9763): 400 µg/mL (≈ 1270 µM); -fold reduction of MIC in the presence of PAβN (K. pneumoniae ATCC 13883; [6]): 8 -fold
C[Si]1(C)OB(O)c2cc(F)c(SCCC(=O)ON3C(=O)CCC3=O)c(F)c21 [Compound 5, 2,5-Dioxopyrrolidin-1-yl 3-((5,7-difluoro-3-hydroxy-1,1-dimethyl-1,3-dihydrobenzo-[c][1,2,5]oxasilaborol-6-yl)thio)propanoate]	> 400 µg/mL	> 400 µg/mL	15 mm		400 µg/mL (≈ 963 µM)	400 µg/mL (≈ 963 µM)		400 µg/mL (≈ 963 µM)	> 400 µg/mL	> 400 µg/mL	> 400 µg/mL	> 400 µg/mL	> 400 µg/mL	
C[Si]1(C)OB(O)c2cc(F)c(SCCC#N)c(F)c21 [Compound 6, 3-((5,7-Difluoro-3-hydroxy-1,1-dimethyl-1,3-dihydrobenzo[c][1,2,5]oxasilaborol-6-yl)thio)propanenitrile]	> 400 µg/mL	> 400 µg/mL	30 mm	12.5 µg/mL (≈ 41.8 µM)	6.25 µg/mL (≈ 20.9 µM)	400 µg/mL (≈ 1340 µM)		50 µg/mL (≈ 167 µM)	> 400 µg/mL	> 400 µg/mL	> 400 µg/mL	> 400 µg/mL	> 400 µg/mL	MBC (S. aureus ATCC 6538P; [7]): > 400 µg/mL
C[Si]1(C)OB(O)c2cc(F)c(SCCC(N)=O)c(F)c21 [Compound 7, 3-((5,7-Difluoro-3-hydroxy-1,1-dimethyl-1,3-dihydrobenzo[c][1,2,5]oxasilaborol-6-yl)thio)propanamide]	> 400 µg/mL	> 400 µg/mL	24 mm		50 µg/mL (≈ 158 µM)	400 µg/mL (≈ 1260 µM)		100 µg/mL (≈ 315 µM)	> 400 µg/mL	> 400 µg/mL	> 400 µg/mL	> 400 µg/mL	> 400 µg/mL	
C[Si]1(C)OB(O)c2cc(F)c(S(=O)(=O)N3CCOCC3)c(F)c21 [Compound 29, 5,7-Difluoro-1,1-dimethyl-6-(morpholinosulfonyl)benzo[c][1,2,5]oxasilaborol-3(1H)-ol]		> 400 µg/mL	16 mm	400 µg/mL (≈ 1100 µM)	200 µg/mL (≈ 551 µM)	> 400 µg/mL		400 µg/mL (≈ 1100 µM)		> 400 µg/mL		> 400 µg/mL	> 400 µg/mL	
